Measured values from ChEMBL document CHEMBL3734707, “Synthesis and biological evaluation of pyrazolopyrimidines as potential antibacterial agents” (2015).
Calls of active or inactive are those of the source. The calls are words filed in the database; no cut-off is given here.

Experiments:
[1] = target: T1, 4-diphosphocytidyl-2-C-methyl-D-erythritol kinase (Burkholderia thailandensis (strain ATCC 700388 / DSM 13276 / CIP106301 / E264)) (UniProt Q2T1B6); assay: Binding affinity to Burkholderia thailandensis E264 recombinant IspE (1 to 293 residues) assessed as maximum spectral signal at 250 uM by STD-NMR analysis
T1 sequence (whole entry): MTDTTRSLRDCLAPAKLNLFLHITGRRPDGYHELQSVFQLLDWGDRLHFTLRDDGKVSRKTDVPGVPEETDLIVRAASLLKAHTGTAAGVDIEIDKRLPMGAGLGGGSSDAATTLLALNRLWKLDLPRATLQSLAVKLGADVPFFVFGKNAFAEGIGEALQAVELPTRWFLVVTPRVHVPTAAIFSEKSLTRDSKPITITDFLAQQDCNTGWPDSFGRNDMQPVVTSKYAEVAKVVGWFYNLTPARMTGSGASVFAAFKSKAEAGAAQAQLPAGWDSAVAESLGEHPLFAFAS

[2] = target: T1, 4-diphosphocytidyl-2-C-methyl-D-erythritol kinase (Burkholderia thailandensis (strain ATCC 700388 / DSM 13276 / CIP106301 / E264)); assay: Binding affinity to Burkholderia thailandensis E264 recombinant IspE (1 to 293 residues) at 250 uM by STD-NMR analysis in presence of ADP and CDP
[3] = target: T1, 4-diphosphocytidyl-2-C-methyl-D-erythritol kinase (Burkholderia thailandensis (strain ATCC 700388 / DSM 13276 / CIP106301 / E264)); assay: Binding affinity to Burkholderia thailandensis E264 recombinant IspE (1 to 293 residues) at 250 uM by STD-NMR analysis in presence of ADP
[4] = test system: Burkholderia thailandensis; assay: Antibacterial activity against Burkholderia thailandensis E264 at 1 mM after 24 to 48 hrs by Kirby-Bauer disc diffusion susceptibility test; type: functional; conditions: read-out: DIZ
[5] = test system: Pseudomonas aeruginosa; assay: Antibacterial activity against Pseudomonas aeruginosa ATCC 27853 at 1 mM after 24 to 48 hrs by Kirby-Bauer disc diffusion susceptibility test; type: functional; conditions: read-out: DIZ
[6] = test system: Burkholderia thailandensis; assay: Antibacterial activity against Burkholderia thailandensis E264 at 0.5 mM after 24 to 48 hrs by Kirby-Bauer disc diffusion susceptibility test; type: functional; conditions: read-out: DIZ
[7] = test system: Pseudomonas aeruginosa; assay: Antibacterial activity against Pseudomonas aeruginosa ATCC 27853 at 0.5 mM after 24 to 48 hrs by Kirby-Bauer disc diffusion susceptibility test; type: functional; conditions: read-out: DIZ
[8] = test system: Pseudomonas aeruginosa; assay: Antibacterial activity against Pseudomonas aeruginosa ATCC 27853 at 0.1 mM after 24 to 48 hrs by Kirby-Bauer disc diffusion susceptibility test; type: functional; conditions: read-out: DIZ
[9] = test system: Burkholderia thailandensis; assay: Antibacterial activity against Burkholderia thailandensis E264 at 0.1 mM after 24 to 48 hrs by Kirby-Bauer disc diffusion susceptibility test; type: functional; conditions: read-out: DIZ
[10] = target: T2, 2-C-methyl-D-erythritol 4-phosphate cytidylyltransferase (Burkholderia thailandensis (strain ATCC 700388 / DSM 13276 / CIP106301 / E264)) (UniProt Q2SWT6); assay: Binding affinity to Burkholderia thailandensis E264 recombinant IspD (1 to 236 residues) at 250 uM by STD-NMR analysis in presence of CDP
T2 sequence (whole entry): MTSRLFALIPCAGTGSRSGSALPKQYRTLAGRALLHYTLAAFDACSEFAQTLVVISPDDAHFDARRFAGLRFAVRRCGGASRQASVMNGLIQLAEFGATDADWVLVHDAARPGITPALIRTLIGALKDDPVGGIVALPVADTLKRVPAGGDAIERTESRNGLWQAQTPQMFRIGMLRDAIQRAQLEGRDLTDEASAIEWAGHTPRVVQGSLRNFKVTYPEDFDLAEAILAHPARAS

[11] = target: T2, 2-C-methyl-D-erythritol 4-phosphate cytidylyltransferase (Burkholderia thailandensis (strain ATCC 700388 / DSM 13276 / CIP106301 / E264)); assay: Binding affinity to Burkholderia thailandensis E264 recombinant IspD (1 to 236 residues) assessed as maximum spectral signal at 250 uM by STD-NMR analysis

Cn1ncc2c(NCc3cccc(F)c3)ncnc21
%max [1]: 24% | Activity [2]: inactive | Activity [3]: Active

NC[C@H]1O[C@H](O[C@H]2[C@H](O)[C@@H](O[C@H]3O[C@H](CO)[C@@H](O)[C@H](N)[C@H]3O)[C@H](N)C[C@@H]2N)[C@H](O)[C@@H](O)[C@@H]1O [KANAMYCIN]
zone of inhibition at 1000 µM [4]: 30 mm | zone of inhibition at 1000 µM [5]: 0 mm | zone of inhibition at 500 µM [6]: 22 mm | zone of inhibition at 500 µM [7]: 0 mm | zone of inhibition at 100 µM [8]: 0 mm | zone of inhibition at 100 µM [9]: 6 mm

Cn1ncc2c(NCc3ccc(F)cc3)ncnc21
%max [1]: 20% | Activity [2]: inactive | Activity [3]: Active

Cn1ncc2c(NCCc3ccc(O)cc3)ncnc21
Activity [10]: Active | %max [1]: 16% | %max [11]: 14% | Activity [2]: inactive | Activity [3]: Active

Cn1ncc2c(NCc3ccccc3F)ncnc21
%max [1]: 14% | Activity [2]: inactive | Activity [3]: Active

CC(C)(C)n1ncc2c(NCCc3c(Cl)cccc3Cl)ncnc21
%max [1]: 12% | Activity [2]: inactive | Activity [3]: Active

CC(C)(C)n1ncc2c(NCc3ccc(Cl)c(Cl)c3)ncnc21
%max [1]: 21% | Activity [2]: inactive | Activity [3]: Active

C[C@H](Nc1ncnc2c1cnn2C)c1ccccc1
%max [1]: 17% | Activity [2]: inactive | Activity [3]: Active

Cn1ncc2c(NCc3ccc(Cl)c(Cl)c3)ncnc21
Activity [10]: Active | %max [1]: 24% | %max [11]: 6% | Activity [2]: inactive | Activity [3]: Active

Cn1ncc2c(NCCc3ccc(Cl)cc3)ncnc21
%max [1]: 12% | Activity [2]: inactive | Activity [3]: Active

Cn1ncc2c(NCCc3ccc(Cl)cc3Cl)ncnc21
Activity [10]: Active | %max [1]: 28% | %max [11]: 8% | Activity [2]: inactive | Activity [3]: Active

Cn1ncc2c(NCc3ccc(Cl)cc3)ncnc21
Activity [10]: Active | %max [1]: 12% | %max [11]: 6% | Activity [2]: inactive | Activity [3]: Active

CC(C)(C)n1ncc2c(NCCc3c(F)cccc3Cl)ncnc21
Activity [10]: inactive | %max [1]: 17% | %max [11]: 10% | Activity [2]: inactive | Activity [3]: Active

Cn1ncc2c(NCCc3cccc(F)c3)ncnc21
%max [1]: 17% | Activity [2]: inactive | Activity [3]: Active

Cn1ncc2c(NCc3ccccc3)ncnc21
%max [1]: 13% | Activity [2]: inactive | Activity [3]: Active

CC(C)(C)n1ncc2c(NCc3ccco3)ncnc21
%max [1]: 17% | Activity [2]: inactive | Activity [3]: Active

Cn1ncc2c(NCCc3c[nH]c4ccccc34)ncnc21
%max [1]: 14% | Activity [2]: inactive | zone of inhibition at 1000 µM [4]: 14 mm | zone of inhibition at 1000 µM [5]: 0 mm | zone of inhibition at 500 µM [6]: 12 mm | zone of inhibition at 500 µM [7]: 0 mm | Activity [3]: Active | zone of inhibition at 100 µM [8]: 0 mm | zone of inhibition at 100 µM [9]: 0 mm

CC(C)(C)n1ncc2c(NCc3ccccc3)ncnc21
%max [1]: 15% | Activity [2]: inactive | Activity [3]: Active

Cn1ncc2c(NCCc3ccc(F)cc3)ncnc21
%max [1]: 11% | Activity [2]: inactive | Activity [3]: Active

CC(C)(C)n1ncc2c(NCCO)ncnc21
zone of inhibition at 1000 µM [4]: 12 mm | zone of inhibition at 1000 µM [5]: 20 mm | zone of inhibition at 500 µM [6]: 8 mm | zone of inhibition at 500 µM [7]: 12 mm | zone of inhibition at 100 µM [8]: 0 mm | zone of inhibition at 100 µM [9]: 0 mm

Cn1ncc2c(NCCc3ccccc3F)ncnc21
%max [1]: 10% | Activity [2]: inactive | Activity [3]: Active

CC(C)(C)n1ncc2c(NCc3cccc([N+](=O)[O-])c3)ncnc21
%max [1]: 21% | Activity [2]: inactive | Activity [3]: Active

Cn1ncc2c(NCCc3c(F)cccc3Cl)ncnc21
Activity [10]: inactive | %max [1]: 14% | %max [11]: 6% | Activity [2]: inactive | Activity [3]: Active
